Results: patent US20220054469A1, “FARNESOID X RECEPTOR AGONISTS AND USES THEREOF” (Metacrine, Inc., priority 2018, published 2022)

Target: T1, hFXR (Homo sapiens, UniProt Q96RI1)
T1 construct: expressed in transfected cells; host or cells: CV-1 cells
T1 sequence (Q96RI1 1-486): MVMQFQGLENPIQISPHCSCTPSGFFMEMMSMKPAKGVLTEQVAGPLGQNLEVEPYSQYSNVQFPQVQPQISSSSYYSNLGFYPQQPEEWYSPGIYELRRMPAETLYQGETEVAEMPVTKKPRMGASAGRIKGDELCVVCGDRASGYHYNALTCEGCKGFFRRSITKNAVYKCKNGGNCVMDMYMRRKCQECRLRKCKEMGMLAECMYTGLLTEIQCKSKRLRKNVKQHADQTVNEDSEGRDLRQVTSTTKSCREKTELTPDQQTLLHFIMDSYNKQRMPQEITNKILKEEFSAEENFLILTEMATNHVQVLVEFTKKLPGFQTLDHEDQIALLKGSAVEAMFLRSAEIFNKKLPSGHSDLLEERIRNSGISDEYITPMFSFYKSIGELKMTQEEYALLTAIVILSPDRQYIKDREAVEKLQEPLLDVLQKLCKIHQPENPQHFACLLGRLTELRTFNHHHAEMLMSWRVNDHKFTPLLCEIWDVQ
T1 sequence (P19793 1-462 partner): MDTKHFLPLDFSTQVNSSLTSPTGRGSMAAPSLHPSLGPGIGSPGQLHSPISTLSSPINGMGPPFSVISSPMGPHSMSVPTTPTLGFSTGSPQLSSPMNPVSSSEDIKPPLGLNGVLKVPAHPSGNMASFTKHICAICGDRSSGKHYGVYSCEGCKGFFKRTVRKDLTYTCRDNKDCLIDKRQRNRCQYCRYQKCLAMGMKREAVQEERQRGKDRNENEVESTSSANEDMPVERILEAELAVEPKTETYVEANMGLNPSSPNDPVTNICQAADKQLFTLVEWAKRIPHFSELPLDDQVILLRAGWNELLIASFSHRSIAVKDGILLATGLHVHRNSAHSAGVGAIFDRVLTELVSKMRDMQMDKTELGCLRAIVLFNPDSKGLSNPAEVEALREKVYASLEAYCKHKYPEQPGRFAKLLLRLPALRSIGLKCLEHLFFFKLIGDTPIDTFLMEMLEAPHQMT
Test: In Vitro FXR Assay (TK)
Type: cell-based
Details: CV-1 cells transfected with hFXR, hRXR, TK-ECRE-luc and pCMX-YFP; incubated with compound for 18 hrs; luminescence
Experimental: Example B-1: In Vitro FXR Assay (TK)
CV-1 cells were seeded at a density of 2,000,000 cells in a T175 flask with DMEM+10% charcoal double-stripped FBS and incubated at 37° C. in 5% CO2 for 18 h (O/N).
After 18 h of incubation, the medium in the T175 flask was changed with fresh DMEM+10% charcoal super-stripped serum. In a polypropylene tube, 2500 μL OptiMEM (Life Technologies, Cat #31985-062) was combined with expression plasmids for hFXR, hRXR, TK-ECRE-luc and pCMX-YFP. The tube was then briefly vortexed and incubated at room temperature for 5 minutes. Transfection reagent (X-tremeGENE HP from Roche, Cat #06 366 236 001) was added to the OptiMEM/plasmid mixture vortexed and incubated at room temperature for 20 minutes. Following incubation, the transfection reagent/DNA mixture complex was added to cells in the T175 flask and the cells were incubated at 37° C. in 5% CO2 for 18 h (O/N).
Compounds were serially diluted in DMSO and added to transfected CV-1 cells. The cells were then incubated for 18 hrs. The next day cells were lysed and examined for luminescence.

EC50, 50 to 1000 nM:
COc1ccc(C23CCC(CN(c4cc(-n5cnc(C(C)C)n5)ccn4)C(=O)[C@H]4CC[C@H](CC(=O)O)CC4)(CC2)CC3)cc1C [Compound 4.26, trans-2-(4-((4-(3-Isopropyl-1H-1,2,4-triazol-1-yl)pyridin-2-yl)((4-(4-methoxy-3-methylphenyl)bicyclo[2.2.2]octan-1-yl)methyl)carbamoyl)cyclohexyl)acetic acid]
COc1ccc(C23CCC(CN(c4cc(-c5nc(C(C)C)no5)ccn4)C(=O)[C@H]4CC[C@H](CC(=O)O)CC4)(CC2)CC3)cc1C [Compound 4.20, trans-2-(4-((4-(3-Isopropyl-1,2,4-oxadiazol-5-yl)pyridin-2-yl)((4-(4-methoxy-3-methylphenyl)bicyclo[2.2.2]octan-1-yl)methyl)carbamoyl)cyclohexyl)acetic acid]

EC50, ≤ 50 nM:
COc1ccc(C23CCC(CN(c4nccc(-c5cnn(C(C)C)c5)n4)C(=O)[C@H]4CC[C@H](CC(=O)O)CC4)(CC2)CC3)cc1C (relative stereo) [Compound 4.09, trans-2-(4-((4-(1-Isopropyl-1H-pyrazol-4-yl)pyrimidin-2-yl)((4-(4-methoxy-3-methylphenyl)bicyclo[2.2.2]octan-1-yl)methyl)carbamoyl)cyclohexyl)acetic acid]
COc1ccc(C23CCC(CN(c4cccc(-c5cnn(C(C)(C)C)c5)c4)C(=O)[C@H]4CC[C@H](CC(=O)O)CC4)(CC2)CC3)cc1C [Compound 2.06, trans-2-(4-((3-(1-(tert-Butyl)-1H-pyrazol-4-yl)phenyl)((4-(4-methoxy-3-methylphenyl)bicyclo[2.2.2]octan-1-yl)methyl)carbamoyl)cyclohexyl)acetic acid]
COc1ccc([C@H]2CC[C@H](CN(c3cccc(-c4cnn(C(C)(C)C)c4)c3)C(=O)[C@H]3CC[C@H](CC(=O)O)CC3)CC2)cc1C [Compound 2.04, 2-(trans-4-((3-(1-(tert-Butyl)-1H-pyrazol-4-yl)phenyl)((trans-4-(4-methoxy-3-methylphenyl)cyclohexyl)methyl)carbamoyl)cyclohexyl)acetic acid]
COc1ccc(C23CCC(CN(c4cc(-c5cnn(C(C)C)c5)ccn4)C(=O)[C@H]4CC[C@H](CC(=O)O)CC4)(CC2)CC3)cc1C [Compound 1.01, trans-2-(4-((4-(1-Isopropyl-1H-pyrazol-4-yl)pyridin-2-yl)((4-(4-methoxy-3-methylphenyl)bicyclo[2.2.2]octan-1-yl)methyl)carbamoyl)cyclohexyl)acetic acid]
COc1ccc(C23CCC(CN(c4ccc(F)c(-c5cnn(C(C)C)c5)c4)C(=O)[C@H]4CC[C@H](CC(=O)O)CC4)(CC2)CC3)cc1C [Compound 2.09, trans-2-(4-((4-Fluoro-3-(1-isopropyl-1H-pyrazol-4-yl)phenyl)((4-(4-methoxy-3-methylphenyl)bicyclo[2.2.2]octan-1-yl)methyl)carbamoyl)cyclohexyl)acetic acid]
COc1ccc(C23CCC(CN(c4cc(-c5cnc(C(C)C)s5)ccn4)C(=O)[C@H]4CC[C@H](CC(=O)O)CC4)(CC2)CC3)cc1C [Compound 4.16, trans-2-(4-((4-(2-Isopropylthiazol-5-yl)pyridin-2-yl)((4-(4-methoxy-3-methylphenyl)bicyclo[2.2.2]octan-1-yl)methyl)carbamoyl)cyclohexyl)acetic acid]
COc1ccc([C@H]2CC[C@H](CN(c3cccc(-c4cnn(C(C)(C)C)c4)c3)C(=O)[C@H]3CC[C@H](CCC(=O)O)CC3)CC2)cc1C [Compound 3.03, trans-3-(4-((3-(1-(tert-Butyl)-1H-pyrazol-4-yl)phenyl)((trans-4-(4-methoxy-3-methylphenyl)cyclohexyl)methyl)carbamoyl)cyclohexyl)propanoic acid]
